For this experiment, the target named is T1, GTPase KRas [1-37] (Homo sapiens, UniProt G3V5T7).
T1 construct: 1-37
Briefly: blockade of Bodipy-GTP loading onto wild-type Ras – biochemical, oxadiazole analogs, multiplex bead flow cytometry, SAR follow-up (AID 2053).

Where [1] appears, read: inactive by the depositor's call.

This is an account of results in BindingDB's records for doi:10.7270/Q2JQ0ZF7 (Nmmlsc, 2009).

Bounds are passed on as bounds.

T1 sequence (G3V5T7 whole entry): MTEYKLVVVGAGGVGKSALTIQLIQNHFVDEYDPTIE

Regarding `Cc1ccc(C)c(N2CCN(C(=O)CCc3nc(-c4cccc(C(F)(F)F)c4)no3)CC2)c1` [KUC103380N], the EC50 (in general, the midpoint of the concentration-response curve) was more than 30 µM.
`Cc1ccc(C)c(N2CCN(C(=O)CCc3nc(-c4ccccc4Cl)no3)CC2)c1` [3-[3-(2-chlorophenyl)-1,2,4-oxadiazol-5-yl]-1-[4-(2,5-dimethylphenyl)-1-piperazinyl]-1-propanone] yielded a half-maximal effective concentration (EC50) of more than 30 µM.
For `COc1ccc(-c2noc(CCC(=O)N3CCN(c4cccc(OC)c4)CC3)n2)cc1` [KUC103349N], the EC50 was more than 30 µM.
As to `COc1ccc(-c2noc(CCC(=O)N3CCN(c4ccc(C)cc4)CC3)n2)cc1` [3-[3-(4-methoxyphenyl)-1,2,4-oxadiazol-5-yl]-1-[4-(4-methylphenyl)piperazin-1-yl]propan-1-one], the concentration for a half-maximal effect (EC50) was more than 30 µM.
For the molecule `COc1ccc(-c2noc(CCC(=O)N3CCN(c4cc(C)ccc4C)CC3)n2)cc1` [1-[4-(2,5-dimethylphenyl)-1-piperazinyl]-3-[3-(4-methoxyphenyl)-1,2,4-oxadiazol-5-yl]-1-propanone], the midpoint of the response under setting [1], the EC50, lay at 1.71 µM.
In turn, `COc1ccc(-c2noc(CCC(=O)N3CCN(c4ccccc4Br)CC3)n2)cc1` [KUC103370N] gave a concentration for a half-maximal effect (EC50) of more than 30 µM.
`COc1ccc(-c2noc(CCC(=O)N3CCN(c4ccccc4C)CC3)n2)cc1` showed an EC50 of more than 30 µM.
The molecule `Cc1ccc(-c2noc(CCC(=O)N3CCN(c4cc(C)ccc4C)CC3)n2)cc1` [1-[4-(2,5-dimethylphenyl)-1-piperazinyl]-3-[3-(4-methylphenyl)-1,2,4-oxadiazol-5-yl]-1-propanone] yielded an EC50 of more than 30 µM.
In turn, `Cc1ccc(C)c(N2CCN(C(=O)CCc3nc(-c4cccc(Br)c4)no3)CC2)c1` [KUC103367N] yielded an EC50 of more than 30 µM.
The molecule `COc1ccc(-c2noc(CCC(=O)N3CCN(c4ccc(OC)cc4)CC3)n2)cc1` [3-[3-(4-methoxyphenyl)-1,2,4-oxadiazol-5-yl]-1-[4-(4-methoxyphenyl)piperazin-1-yl]propan-1-one] displayed an EC50 of more than 30 µM.
Molecule `COc1ccccc1-c1noc(CCC(=O)N2CCN(c3cc(C)ccc3C)CC2)n1` [UNM-0000306071] showed a half-maximal effective concentration (EC50) of more than 30 µM.
Regarding `Cc1ccc(C)c(N2CCN(C(=O)CCc3nc(-c4ccccc4)no3)CC2)c1` [UNM-0000306070], the response under setting [1] was half-maximal at 0.869 µM (EC50).
The molecule `Cc1ccc(C)c(N2CCN(C(=O)CCc3nc(-c4ccc(Cl)cc4)no3)CC2)c1` [UNM-0000306083] yielded an EC50 of more than 30 µM.
Take `COc1ccc(-c2noc(CCC(=O)N3CCN(c4ccc(F)cc4)CC3)n2)cc1` [KUC103398N]: the concentration giving a half-maximal response (EC50) is more than 30 µM.
`COc1ccc(-c2noc(CCC(=O)N3CCN(c4ccc(C(F)(F)F)cc4)CC3)n2)cc1` [3-[3-(4-methoxyphenyl)-1,2,4-oxadiazol-5-yl]-1-[4-[4-(trifluoromethyl)phenyl]piperazin-1-yl]propan-1-one] had an EC50 of more than 30 µM.
As to `COc1ccc(-c2noc(CCC(=O)N3CCN(c4ccc(Cl)cc4)CC3)n2)cc1` [UNM-0000306121], the EC50 was more than 30 µM.
In turn, `Cc1ccc(C)c(N2CCN(C(=O)CCc3nc(-c4ccccc4F)no3)CC2)c1` [KUC103401N] had an EC50 of more than 30 µM.
The molecule `COc1ccc(-c2noc(CCCCC(=O)N3CCN(c4cc(C)ccc4C)CC3)n2)cc1` [1-[4-(2,5-dimethylphenyl)-1-piperazinyl]-5-[3-(4-methoxyphenyl)-1,2,4-oxadiazol-5-yl]-1-pentanone] had a concentration for a half-maximal effect (EC50) of more than 30 µM.
As for `COc1ccc(-c2noc(CCC(=O)N3CCN(c4cccc(F)c4)CC3)n2)cc1` [1-[4-(3-fluorophenyl)piperazin-1-yl]-3-[3-(4-methoxyphenyl)-1,2,4-oxadiazol-5-yl]propan-1-one], the EC50 was more than 30 µM.
Turning to `Cc1ccc(C)c(N2CCN(C(=O)CCc3nc(-c4ccc(N(C)C)cc4)no3)CC2)c1` [KUC103409N], the concentration giving a half-maximal response (EC50) was more than 30 µM.
For `COc1ccc(-c2noc(CCC(=O)N3CCN(c4ccccc4Cl)CC3)n2)cc1` [1-[4-(2-chlorophenyl)piperazin-1-yl]-3-[3-(4-methoxyphenyl)-1,2,4-oxadiazol-5-yl]propan-1-one], the response under setting [1] was half-maximal at 1.87 µM (EC50).
Consider `Cc1ccc(C)c(N2CCN(C(=O)CCc3nc(-c4ccc(C(F)(F)F)cc4)no3)CC2)c1` [1-[4-(2,5-dimethylphenyl)-1-piperazinyl]-3-[3-[4-(trifluoromethyl)phenyl]-1,2,4-oxadiazol-5-yl]-1-propanone], for which the EC50 was more than 30 µM.
Same read-out and setting: in the case of `COc1ccc(-c2noc(CCC(=O)N3CCN(c4ccccc4OC)CC3)n2)cc1` [3-[3-(4-methoxyphenyl)-1,2,4-oxadiazol-5-yl]-1-[4-(2-methoxyphenyl)-1-piperazinyl]-1-propanone] it was more than 30 µM; in that of `COc1ccc(-c2cc(CCC(=O)N3CCN(c4cc(C)ccc4C)CC3)on2)cc1` [1-[4-(2,5-dimethylphenyl)piperazin-1-yl]-3-[3-(4-methoxyphenyl)-1,2-oxazol-5-yl]propan-1-one], more than 30 µM; in that of `Cc1ccc(C)c(N2CCN(C(=O)CCc3nc(-c4ccccc4C)no3)CC2)c1`, more than 30 µM.
Regarding `Cc1ccc(C)c(N2CCN(C(=O)CCc3nc(-c4ccc(Br)cc4)no3)CC2)c1` [UNM-0000306072], the EC50 under setting [1] is 1.83 µM. This counts as single-digit micromolar.
Molecule `COc1ccc(-c2noc(CCC(=O)N3CCN(c4cccc(C(F)(F)F)c4)CC3)n2)cc1` [1-{3-[3-(4-methoxyphenyl)-1,2,4-oxadiazol-5-yl]propanoyl}-4-[3-(trifluoromethyl)phenyl]piperazine] displayed a concentration for a half-maximal effect (EC50) of more than 30 µM.
With `COc1ccc(-c2noc(CCC(=O)N3CCN(c4ccccc4)CC3)n2)cc1` [3-[3-(4-methoxyphenyl)-1,2,4-oxadiazol-5-yl]-1-(4-phenylpiperazin-1-yl)propan-1-one], the EC50 is more than 30 µM.
With `Cc1ccc(C)c(N2CCN(C(=O)CCc3nc(-c4ccccc4C(F)(F)F)no3)CC2)c1`, the concentration for a half-maximal effect (EC50) was more than 30 µM.
`COc1cccc(-c2noc(CCC(=O)N3CCN(c4cc(C)ccc4C)CC3)n2)c1` returned an EC50 under setting [1] of 1.49 µM.
For the molecule `COc1ccc(-c2noc(CCC(=O)N3CCN(c4cccc(Br)c4)CC3)n2)cc1` [1-[4-(3-bromophenyl)-1-piperazinyl]-3-[3-(4-methoxyphenyl)-1,2,4-oxadiazol-5-yl]-1-propanone], under setting [1], the EC50 amounted to 0.017 µM.
Molecule `Cc1ccc(C)c(N2CCN(C(=O)CCc3nc(-c4cccc(Cl)c4)no3)CC2)c1` [UNM-0000306086] returned a half-maximal effective concentration (EC50) of more than 30 µM.
With `COc1ccc(-c2ccc(CCC(=O)N3CCN(c4cc(C)ccc4C)CC3)[nH]2)cc1` [1-[4-(2,5-dimethylphenyl)piperazin-1-yl]-3-[5-(4-methoxyphenyl)-1H-pyrrol-2-yl]propan-1-one], the EC50 was more than 30 µM.
For the molecule `COc1ccc(-c2noc(CC(=O)N3CCN(c4cc(C)ccc4C)CC3)n2)cc1` [1-[4-(2,5-dimethylphenyl)piperazin-1-yl]-2-[3-(4-methoxyphenyl)-1,2,4-oxadiazol-5-yl]ethanone], the EC50 was more than 30 µM.
The same measure, in the same setting: in the case of `COc1ccc(-c2coc(CCC(=O)N3CCN(c4cc(C)ccc4C)CC3)n2)cc1` [1-[4-(2,5-dimethylphenyl)piperazin-1-yl]-3-[4-(4-methoxyphenyl)-1,3-oxazol-2-yl]propan-1-one] it was more than 30 µM; in that of `COc1ccc(-c2ccc(CCC(=O)N3CCN(c4cc(C)ccc4C)CC3)s2)cc1`, more than 30 µM; in that of `Cc1cccc(-c2noc(CCC(=O)N3CCN(c4cc(C)ccc4C)CC3)n2)c1` [1-[4-(2,5-dimethylphenyl)piperazin-1-yl]-3-[3-(3-methylphenyl)-1,2,4-oxadiazol-5-yl]propan-1-one], more than 30 µM.
In turn, `COc1ccc(-c2ccc(CCC(=O)N3CCN(c4cc(C)ccc4C)CC3)o2)cc1` [KUC103447N] showed an EC50 of more than 30 µM.
With `COc1ccc(-c2cc(CCC(=O)N3CCN(c4cc(C)ccc4C)CC3)[nH]n2)cc1` [UNM-0000306150], the concentration for a half-maximal effect (EC50) was more than 30 µM.
In the case of `COc1ccc(-c2noc(CCC(=O)N3CCN(c4cccc(C)c4C)CC3)n2)cc1` [1-[4-(2,3-dimethylphenyl)-1-piperazinyl]-3-[3-(4-methoxyphenyl)-1,2,4-oxadiazol-5-yl]-1-propanone], the EC50 was more than 30 µM.
On to `COc1ccc(-c2noc(CCC(=O)N3CCN(c4cccc(Cl)c4)CC3)n2)cc1`, for which the EC50 was more than 30 µM.
For `COc1ccc(-c2noc(CCC(=O)N3CCN(c4ccc(Br)cc4)CC3)n2)cc1` [1-[4-(4-bromophenyl)piperazin-1-yl]-3-[3-(4-methoxyphenyl)-1,2,4-oxadiazol-5-yl]propan-1-one], the EC50 is more than 30 µM.
Same read-out and setting: the figure for `COc1ccc(-c2noc(CCC(=O)N3CCN(c4cccc(C)c4)CC3)n2)cc1` [UNM-0000306125] is more than 30 µM; for `COc1ccc(-c2cccc(CCC(=O)N3CCN(c4cc(C)ccc4C)CC3)c2)cc1` [UNM-0000306127] it is more than 30 µM.
As for `Cc1ccc(C)c(N2CCN(C(=O)CCc3nc(-c4ccccc4Br)no3)CC2)c1` [3-[3-(2-bromophenyl)-1,2,4-oxadiazol-5-yl]-1-[4-(2,5-dimethylphenyl)-1-piperazinyl]-1-propanone], the EC50 under setting [1] was determined as 0.033 µM.
`Cc1ccc(C)c(N2CCN(C(=O)CCc3nc(-c4cccc(F)c4)no3)CC2)c1` [KUC103366N] had an EC50 of more than 30 µM.
On to `Cc1ccc(C)c(N2CCN(C(=O)CCc3nc(-c4ccc(F)cc4)no3)CC2)c1` [KUC103364N], for which the EC50 is more than 30 µM.
As for `COc1ccc(-c2noc(CCCC(=O)N3CCN(c4cc(C)ccc4C)CC3)n2)cc1` [KUC103353N], the concentration giving a half-maximal response (EC50) was more than 30 µM.
Take `COc1ccc(-c2noc(CCC(=O)N3CCN(c4ccccc4C(F)(F)F)CC3)n2)cc1` [UNM-0000306082]: the EC50 was more than 30 µM.
`COc1ccc(-c2noc(CCC(=O)N3CCN(c4ccccc4F)CC3)n2)cc1` [1-[4-(2-fluorophenyl)piperazin-1-yl]-3-[3-(4-methoxyphenyl)-1,2,4-oxadiazol-5-yl]propan-1-one] gave an EC50 under setting [1] of 0.05 µM.
For the molecule `COc1ccc(-c2noc(CCC(=O)N3CCC(c4cc(C)ccc4C)CC3)n2)cc1` [KUC103432N], the 50% effective concentration (EC50) was more than 30 µM.
